Results reported in patent US20100210654A1, “NOVEL P2Y12 RECEPTOR ANTAGONISTS” (RHEINISCHE FRIEDRICH-WILHELMS UNIVERSITÄT BONN, priority 2007, published 2010).

Assays:
P2Y12 [1] = biological target: T1, P2Y12 (Homo sapiens, UniProt Q9H244); experiment: GTP shift experiments (radioligand binding in presence and absence of GTP); set-up: Membranes were prepared from human outdated platelets from the blood bank; from tissue; host or cells: human platelets (University of Bonn blood bank), membrane preparation; details: presence and absence of GTP (100 μM); no shift = antagonist rather than agonist
Experimental: (§1) Radioligand binding assays were performed using 5 nM [^3H]PSB-0413 and 100 μg of protein in Tris-HCl buffer 50 mM, pH 7.4, as previously described. (El-Tayeb, A., Griessmeier, K. J, Müller, C. E. Bioorg. Med. Chem. Lett. 2005, 15, 5450-52; Atzler, K. Doctoral Thesis, University of Bonn, 2006). Competition by 10 μM of test compound was initially determined. The mixture was incubated for 1 h at rt followed by filtration through GF/B filters. Nonspecific binding was determined with 1 mM ADP or 250 μM RB 2. […] At least three independent experiments were performed each in triplicate.
Selected compounds were investigated for their functionality in GTP shift experiments. Radioligand binding studies as described above were performed in the presence and absence of GTP (100 μM).
Target sequence in this assay (Q9H244 whole entry): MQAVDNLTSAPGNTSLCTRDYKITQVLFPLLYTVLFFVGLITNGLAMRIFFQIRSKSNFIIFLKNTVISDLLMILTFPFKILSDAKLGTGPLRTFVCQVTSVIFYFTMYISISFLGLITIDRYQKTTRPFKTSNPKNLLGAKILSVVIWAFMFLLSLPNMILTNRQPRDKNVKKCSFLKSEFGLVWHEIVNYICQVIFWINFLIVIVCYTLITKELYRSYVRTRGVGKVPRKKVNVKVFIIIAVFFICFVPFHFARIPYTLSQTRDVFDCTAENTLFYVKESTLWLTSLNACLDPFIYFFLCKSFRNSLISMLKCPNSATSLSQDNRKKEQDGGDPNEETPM

P2Y12 [2] = biological target: T1, P2Y12; details: recent review article (Abbracchio et al. 2006); read-out: Ki value as P2Y12 antagonist; cited from earlier work
Target sequence in this assay (Q9H244 whole entry, species assumed): as the sequence (Q9H244 whole entry) above

hP2Y2 Receptor = biological target: T2, hP2Y2 Receptor (Homo sapiens, UniProt P41231); experiment: Inhibition of agonist-induced calcium mobilization, recombinant receptor in human astrocytoma cells; format: cell-based; details: mean ± SEM
T2 construct: expressed in transfected cells; host or cells: human astrocytoma cells
T2 sequence (P41231 whole entry): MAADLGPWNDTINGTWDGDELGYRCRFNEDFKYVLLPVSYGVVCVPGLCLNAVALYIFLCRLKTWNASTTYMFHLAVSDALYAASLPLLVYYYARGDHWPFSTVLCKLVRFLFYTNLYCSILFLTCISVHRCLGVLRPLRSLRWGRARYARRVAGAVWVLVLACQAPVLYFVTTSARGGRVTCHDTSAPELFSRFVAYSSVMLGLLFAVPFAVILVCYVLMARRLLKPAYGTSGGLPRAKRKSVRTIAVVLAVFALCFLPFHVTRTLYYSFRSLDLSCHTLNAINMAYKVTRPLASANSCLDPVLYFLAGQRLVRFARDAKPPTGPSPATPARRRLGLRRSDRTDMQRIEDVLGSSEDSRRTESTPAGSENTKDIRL
Experimental: (§2) Inhibition of agonist-induced calcium mobilization was determined as previously described (Kaulich M. et al, Drug Dev. Res. 2003, 59, 72-81) using NG108-15 cells for the mouse P2Y2 receptor, or human recombinant P2Y receptors stably expressed in human astrocytoma cells (El-Tayeb, A. et al., J. Med. Chem. 2006, 49, 7076-87).
(§3) The data were analyzed using GraphPad Prism 4.0 (GraphPad Software, Inc., San Diego, Calif.).

[3] = biological target: T3, human platelet P2Y12 receptors (Homo sapiens, UniProt Q9H244); experiment: Radioligand binding assay with [3H]PSB-0413 at human platelet membranes; details: human platelet membranes, 5 nM [3H]PSB-0413, 1 h at rt; mean ± SEM; read-out: hP2Y12 Receptor Ki [μM ± SEM] vs. [3H]PSB-0413
T3 construct: Membranes were prepared from human outdated platelets from the blood bank; from tissue; host or cells: human platelets (University of Bonn blood bank), membrane preparation
T3 sequence (Q9H244 whole entry): as the sequence (Q9H244 whole entry) above
Experimental: Membranes were prepared from human outdated platelets from the blood bank. Outdated human platelets were obtained from the University of Bonn blood bank 4-5 days after donation. Platelet rich plasma was washed by centrifugation (10 min at 1000 g) in a buffer consisting of 50 mM Tris-HCl, pH 7.4, 5 mM EDTA and 150 mM NaCl. The supernatant was centrifuged twice (48400 g for 60 min) and the resultant platelet pellet were resuspended in 5 mM Tris-HCl (pH 7.4) containing 5 mM EDTA. The platelets were homogenized by a homogenizer. The final suspension was stored frozen as multiple aliquots at −80° C. until needed. Protein concentrations were determined by the method of Lowry using a Sigma Chemie protein assay kit.
as §1, §3

mouse P2Y2 receptor = mouse P2Y2 receptor (Mus musculus, UniProt P35383); experiment: Inhibition of agonist-induced calcium mobilization in NG108-15 cells; format: cell-based; details: mean ± SEM, read-out: mP2Y2 Receptor IC50 (μM ± SEM)
Chain of mouse P2Y2 receptor (P35383 whole entry): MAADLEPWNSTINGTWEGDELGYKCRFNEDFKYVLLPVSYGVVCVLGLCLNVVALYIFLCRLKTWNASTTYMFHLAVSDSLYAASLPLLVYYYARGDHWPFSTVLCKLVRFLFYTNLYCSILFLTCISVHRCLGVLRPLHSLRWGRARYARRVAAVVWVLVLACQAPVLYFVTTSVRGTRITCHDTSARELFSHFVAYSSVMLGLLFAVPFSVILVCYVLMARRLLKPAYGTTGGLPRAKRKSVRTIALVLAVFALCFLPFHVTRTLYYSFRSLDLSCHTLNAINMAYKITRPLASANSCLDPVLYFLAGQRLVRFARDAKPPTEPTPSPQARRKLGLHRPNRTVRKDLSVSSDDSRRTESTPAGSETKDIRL
Experimental: as §2, §3

hP2Y4 Receptor = hP2Y4 Receptor (Homo sapiens, UniProt P51582); experiment: Inhibition of agonist-induced calcium mobilization, recombinant receptor in human astrocytoma cells; format: cell-based; details: mean ± SEM
Chain of hP2Y4 Receptor (P51582 whole entry): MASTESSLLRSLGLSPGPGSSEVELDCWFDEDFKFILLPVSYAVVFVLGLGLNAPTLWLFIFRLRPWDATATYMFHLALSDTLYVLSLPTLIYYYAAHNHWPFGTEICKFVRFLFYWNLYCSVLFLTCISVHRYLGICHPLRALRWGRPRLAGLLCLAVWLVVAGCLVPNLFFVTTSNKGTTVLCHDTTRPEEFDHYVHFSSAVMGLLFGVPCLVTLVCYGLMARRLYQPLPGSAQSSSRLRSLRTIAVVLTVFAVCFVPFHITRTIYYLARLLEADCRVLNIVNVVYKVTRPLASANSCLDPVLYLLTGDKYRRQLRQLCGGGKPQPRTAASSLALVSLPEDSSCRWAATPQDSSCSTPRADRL
Experimental: as §2, §3

rP2Y6 Receptor = rP2Y6 Receptor (Rattus norvegicus, UniProt Q63371); experiment: as above; format: cell-based; details: mean ± SEM
Chain of rP2Y6 Receptor (Q63371 whole entry): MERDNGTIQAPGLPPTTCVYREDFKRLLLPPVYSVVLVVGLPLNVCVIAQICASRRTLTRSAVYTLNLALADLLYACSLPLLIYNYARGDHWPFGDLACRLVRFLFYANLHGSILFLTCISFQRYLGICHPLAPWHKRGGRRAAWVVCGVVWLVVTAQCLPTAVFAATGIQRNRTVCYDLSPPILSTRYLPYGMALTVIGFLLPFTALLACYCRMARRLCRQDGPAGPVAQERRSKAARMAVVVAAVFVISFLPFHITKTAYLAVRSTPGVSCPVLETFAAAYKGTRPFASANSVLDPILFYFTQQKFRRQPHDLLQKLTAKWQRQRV
Experimental: as §2, §3

SMILES	IC50 (hP2Y2 Receptor) [µM]	Ki [3] [µM]	IC50 (hP2Y4 Receptor) [µM]	IC50 (rP2Y6 Receptor) [µM]	further results
Nc1c(S(=O)(=O)O)cc(Nc2ccc(Nc3nc(Cl)nc(Nc4cccc(S(=O)(=O)O)c4)n3)c(S(=O)(=O)O)c2)c2c1C(=O)c1ccccc1C2=O [Reactive Blue 2, reference compound]	–	–	–	–	right-shift of the concentration-inhibition curve in GTP shift experiments (P2Y12 [1]): did not; Ki (P2Y12 [2]): 1.3 µM
Nc1c(S(=O)(=O)O)cc(Nc2ccccc2)c2c1C(=O)c1ccccc1C2=O [Entry 17]	5.61 ± 0.47	9.83 ± 2.43	–	–	IC50 (mouse P2Y2 receptor): 11.1 ± 3 µM
Nc1c(S(=O)(=O)O)cc(Nc2cccc(Cl)c2)c2c1C(=O)c1ccccc1C2=O [Entry 27]	24.5 ± 10.4	6.76 ± 2.07	> 3	> 100	–
COc1nc(Cl)nc(Nc2ccc(Nc3cc(S(=O)(=O)[O-])c(N)c4c3C(=O)c3ccccc3C4=O)cc2S(=O)(=O)[O-])n1.[Na+].[Na+] [Entry 37]	–	0.66 ± 0.12	–	–	right-shift of the concentration-inhibition curve in GTP shift experiments (P2Y12 [1]): did not
Nc1c(S(=O)(=O)O)cc(Nc2cccc3ccccc23)c2c1C(=O)c1ccccc1C2=O [Entry 25]	6.67 ± 0.32	–	10.1 ± 1.4	26.7	IC50 (mouse P2Y2 receptor): 10.7 ± 1 µM
COc1ccc(CCNc2cc(S(=O)(=O)O)c(N)c3c2C(=O)c2ccccc2C3=O)cc1OC [Entry 21]	–	–	> 30	> 100	–
Nc1c(S(=O)(=O)O)cc(Nc2cccc(S(=O)(=O)O)c2)c2c1C(=O)c1ccccc1C2=O [Entry 1]	–	3.81 ± 1.08	18.5 ± 2.5	~100	–
Nc1ccc(Nc2cc(S(=O)(=O)O)c(N)c3c2C(=O)c2ccccc2C3=O)cc1S(=O)(=O)O [Entry 5]	–	2.39 ± 0.65	11 ± 3	24.3 ± 3.4	–
Nc1c(S(=O)(=O)O)cc(Nc2ccc(Cl)cc2)c2c1C(=O)c1ccccc1C2=O [Entry 15]	4.46 ± 0.75	7.35 ± 1.72	> 3	> 10	IC50 (mouse P2Y2 receptor): 20 ± 7 µM
Nc1c(S(=O)(=O)[O-])cc(Nc2ccc(Nc3ncccn3)c(S(=O)(=O)[O-])c2)c2c1C(=O)c1ccccc1C2=O.[Na+].[Na+] [Entry 33]	–	0.0507 ± 0.016	9.04 ± 1.2	28.6 ± 2.7	right-shift of the concentration-inhibition curve in GTP shift experiments (P2Y12 [1]): did not
Nc1c(S(=O)(=O)O)cc(Nc2cccc([N+](=O)[O-])c2)c2c1C(=O)c1ccccc1C2=O [Entry 28]	7.52 ± 0.82	–	–	–	–
Nc1ncnc2c1ncn2[C@@H]1O[C@H](COP(=O)(O)OP(=O)(O)O)[C@@H](O)[C@H]1O [ADP, reference compound]	–	–	–	–	right-shift of the concentration-inhibition curve in GTP shift experiments (P2Y12 [1]): significant right-shift
Nc1c(S(=O)(=O)[O-])cc(Nc2ccc(CC(=O)O)cc2)c2c1C(=O)c1ccccc1C2=O.[Na+] [Example 15, Sodium 1-amino-4-(4-carboxymethylphenylamino)-9,10-dioxo-9,10-dihydro-anthracene 2-sulfonate]	–	–	–	–	melting point: > 300 °C
Nc1c(S(=O)(=O)O)cc(Nc2ccc(Nc3ccccc3)cc2)c2c1C(=O)c1ccccc1C2=O [Entry 18]	–	1.85 ± 0.57	> 3	> 1	IC50 (mouse P2Y2 receptor): 30 ± 7 µM
